How the values were obtained:
MMP-1 = test: UVB-induced MMP-1 protein expression in WS-1 cells, western blotting; type: cell-based, human; conditions: for MMP-1 Expression Level (%): Vehicle/UVB set to 100%; for MMP-1 protein level relative to vehicle/UVB group: pre-incubation with peptide
Procedure: Human skin fibroblast WS-1 cell line was obtained from Food Industry Research and Development Institute (Hsin-Chu, Taiwan). The WS-1 cells were maintained in a 37° C., 5% CO2 humidified incubator as monolayers in culture flasks. They were grown in 10% FBS-DMEM supplemented with 2 mM L-glutamine, 0.1 mM non-essential amino acids, 1% penicillin/streptomycin. For passage, near-confluent cells were sub-cultured by 0.25% trypsin/EDTA.
Skin tissues were homogenized in ice-cold lysis buffer containing 20 mM HEPES (pH 7.4), 150 mM NaCl, 1% SDS, 1 mM ethylenediamine tetraacetic acid (EDTA), 5 mM phenylmethanesulfonyl fluoride (PMSF), and 1 mM dithiothreitol (DTT), 1% Triton X-100, with freshly added protease inhibitor cocktail (Roche, Indianapolis, Ind.). Homogenates were then centrifuged at 12,000 g for 30 minutes at 4° C., and supernatants were then collected and stored at −70° C. Protein contents in lysates were determined using the Bradford assay. Whole cell lysates were prepared using the above lysis buffer. Aliquots of the lysates were then resolved on a SDS-PAGE and then electrotransferred to polyvinylidene difluoride (PVDF) membranes (Millipore, Bedford, Mass., USA) and processed for immunoblot analysis.
Antibodies used in the immunoblot study included anti-type I collagen 1A1 antibody (1:1000 dilution), anti-MMP-1 antibody (1:500 dilution) and anti-β-actin antibody (1:10000 dilution). Proteins of interest were detected using the appropriate IgG-HRP secondary antibody and ECL reagent (Amersham, Arlington Heights, Ill., USA). X-ray films were scanned on a Model GS-700 Imaging Densitometer (Bio-Rad Laboratories, Hercules, Calif.) and analyzed using Labworks 4.0 software. For quantification, blots from at least three independent experiments were used.
WS-1 were seeded on a six-well plate at a density of 1×10^5 cells per well and grown in the 10% FBS-DMEM growth medium for 24 hours and then incubated with 1% FBS-DMEM supplemented with or without 100 nM PEDF peptide for further 24 hours. The cells were washed twice with phosphate buffered saline (PBS) and exposed to UVB radiation covered with PBS. The UVB treatment was conducted in a cell culture hood by using a UVB lamp (model XL-1000B, Spectrolinker™ Inc.) at a final dose of 15 mJ/cm^2 for about 100 seconds. Cell viability was assayed using trapan blue exclusion assay (>95%). After UVB irradiation, PBS was replaced with 1% FBS-DMEM with or without PEDF peptide for further 48 hours and then protein extracts were assayed by western blotting for the expression of MMP-1 protein. Cells that were not subjected to UVB irradiation were used as control (normal). The expression level of MMP-1 was normalized with the expression level in the Vehicle/UVB group (set to 100%), and quantitative results are summarized in Table 6.

[1] = tested on: Human dermal fibroblasts (WS-1 cells); test: Cell migration of WS-1 cells, transwell assay; type: cell-based; conditions: 100 nM for 24 hours, data not shown
From the text: (§1) According to our preliminary study, cell viability was greater than 95% relative to that of the control after exposure to 15 mJ/cm^2 UVB irradiation (data not shown). […] Therefore, the exposure dose was set at 15 mJ/cm^2 in the following experiment.

[2] = tested on: primary mouse dermal fibroblasts; test: Cell viability of primary mouse dermal fibroblasts pretreated with peptide; type: cell-based; conditions: 100 nM for 24 hours, data not shown
From the text: as §1

[3] = tested on: Human dermal fibroblasts (WS-1 cells); test: Cell viability of WS-1 cells pretreated with peptide; type: cell-based; conditions: 100 nM for 24 hours, data not shown
From the text: as §1

[4] = tested on: primary mouse dermal fibroblasts; test: Cell migration of primary mouse dermal fibroblasts, transwell assay; type: cell-based; conditions: 100 nM for 24 hours, data not shown
[5] = 100 nM peptide 24 h before and 48 h after UVB 15 mJ/cm^2

Substance | MMP-1 Expression Level (%) (MMP-1; [5]) | MMP-1 Expression Level (%) (MMP-1; 100 nM peptide, no UVB irradiation) | MMP-1 protein level relative to vehicle/UVB group (MMP-1) | cell migration [1] | cell viability [2] | cell viability [3] | cell migration [4]
Ac-SLGAEQRTESIIHRALYYDLISSPDIHGT-NH2 [29-mer] | 42 ± 3.3 | 5 ± 2.3 | about half | did not cause any significant change in cell migration | did not cause any significant change in cell viability | did not cause any significant change in cell viability | did not cause any significant change in cell migration
SLGAEQRTESIIHRALYYDL [20-mer, synthetic peptide corresponding to residues 93-112 of human PEDF] | 50 ± 5.1 |  | about half |  |  |  | 

— patent publication US9815878B2, “Use of PEDF-derived polypeptides for preventing and/or ameliorating skin aging” (MacKay Memorial Hospital, priority 2012, dated 2017)
